Results published in patent US20230201153A1, “COMPOSITIONS AND METHODS FOR TREATMENT OF OBESITY” (EPITRACKER, INC., priority 2020, published 2023).
“Also recorded” adds a separate entry of the source.

Legend:
[1] = target: T1, cannabinoid receptor 2 (CB2) (Homo sapiens, UniProt P34972); experiment: SAFETYscan E/IC50 ELECT functional assay, CB2 agonist activity; assay type: cell-based; details: at 20 μM; relative to positive control CP 55940 assigned 100%
T1 construct: purchased DiscoverX/Eurofins, Fremont, Calif
Excerpt: (§1) In order to evaluate potential pharmacologic targets of pentadecanoic acid, this study examined agonist and antagonist activities of synthetic pentadecanoic acid (Sigma-Aldrich Product W433400) across 78 assays using SAFETYscan E/IC50 ELECT (DiscoverX/Eurofins, Fremont, Calif.). Briefly, a variety of standardized and optimized functional assays were used, including G protein coupled receptors (ADORA2A, ADRA1A, ADRA2A, ADRB1, ADRB2, CB1, CB2, CCK1, D1, D2S, ETA, H1, H2, M1 M2, M3, OPRD1, OPRK1, OPRM1, 5HTR1A, 5HTR1B, 5HTR2A, 5HTR2B, AVPR1A), kinases (LCK, INSR, VEGFR2, ROCK1), transporters (DAT, NET, SERT), ion channels (GABAA, 5-HT3, CA1.2, HERG, KVLQT1/MINK, NA1.5, NMDAR1/2B, NACHR), nuclear receptors (AR, GR), and non-kinase enzymes (COX1, COX2, ACHE, MAOA, PDE3A, PDE4D2). Ten-point concentration curves for both agonist (EC50) and antagonist (IC50) activity were established for each target. Maximum activity (%) was also determined based on comparisons with internal positive controls, which were assigned 100% activity.

[2] = target: T2, cannabinoid receptor 1 (CB1) (Homo sapiens, UniProt P21554); experiment: SAFETYscan E/IC50 ELECT functional assay, CB1 agonist activity; assay type: cell-based; details: at 20 μM; relative to positive control CP 55940 assigned 100%
T2 construct: purchased DiscoverX/Eurofins, Fremont, Calif
Excerpt: as §1

[3] = target: T3, PPARα (Homo sapiens, UniProt Q07869); experiment: PathHunter NHRscan CHO cell-based functional protein interaction assay, PPARα agonist; details: CHO cells, 10 concentrations up to 100 μM; for EC50: read-out: effective concentration needed to reach half-maximum PPARα activity
T3 construct: host or cells: Chinese hamster ovary (CHO)
T3 sequence (Q07869 1-468): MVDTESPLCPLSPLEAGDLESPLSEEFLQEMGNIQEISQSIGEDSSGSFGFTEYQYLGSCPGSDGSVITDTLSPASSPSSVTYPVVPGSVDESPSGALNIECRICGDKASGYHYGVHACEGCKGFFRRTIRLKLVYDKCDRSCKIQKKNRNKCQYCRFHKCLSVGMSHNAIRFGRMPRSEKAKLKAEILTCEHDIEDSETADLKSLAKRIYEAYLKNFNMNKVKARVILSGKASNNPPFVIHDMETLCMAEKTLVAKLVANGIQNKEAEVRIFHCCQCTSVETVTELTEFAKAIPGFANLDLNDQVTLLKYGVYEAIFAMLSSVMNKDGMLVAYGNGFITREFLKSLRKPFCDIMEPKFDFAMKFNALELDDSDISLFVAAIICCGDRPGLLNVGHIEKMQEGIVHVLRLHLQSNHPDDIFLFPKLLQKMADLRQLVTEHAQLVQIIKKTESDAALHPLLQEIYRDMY
Procedure: (§2) Chinese hamster ovary (CHO, cell line 93-0457C2) cell-based functional protein interaction assays for PPARα, δ, and γ that are part of the Eurofins/DiscoverX PathHunter NHRscan panel (Fremont, Calif.) were used to evaluate C15:0 and C17:0 PPARα, δ and γ agonist activities at 10 concentrations (up to 100 μM). Effective concentrations (EC:50) and maximum activities were determined in relation to positive controls (GW7647 for PPARα, L-165.041 for PPARδ, and troglitazone for PPARγ). Detailed methods used for these assays and assay readouts are available from Eurofins/DiscoverX.

[4] = Voluntary customer surveys after daily oral C15:0 supplement (fatty15); assay type: in vivo, human
Procedure: An odd-chain saturated fatty acid dietary supplement, containing an encapsulated pure (>98%) free fatty acid C15:0 powder and called fatty15™, was launched as a consumer health product. Recommended dosing was a single, […] capsule taken orally once a day. Based on our studies with obese mice, we hypothesized that daily oral C15:0 supplementation would decrease snacking and/or improve body weight among customers.
6-Week Survey. Six weeks following receipt of the C15:0 supplement, customers were provided a voluntary electronic questionnaire to evaluate potential near-term benefits, including the question, ‘Overall how much would you agree with the following statement: Since starting fatty15, I feel less hungry between meals, snack less, and/or eat less during meals.’ Survey responders were asked to select a number between 1 and 10, in which 1=Strongly disagree and 10=Strongly agree. A response of 7 or greater was considered an agreement with the statement. Survey responders were also asked if fatty15™ had become a part of their daily health routine.
4-Month Survey. Approximately 4 months following receipt of the C15:0 supplement, customers were provided a second voluntary electronic questionnaire to evaluate potential longer-tem benefits, including the question, ‘Which of the following (if any) have you experienced since starting fatty15, even if this experience has been subtle?’ Two of the possible responses were ‘Healthier eating, including less snacking’ and ‘Healthier body weight’.

[5] = target: T4, PPARδ (Homo sapiens, UniProt Q03181); experiment: PathHunter NHRscan CHO cell-based functional protein interaction assay, PPARδ agonist; details: CHO cells, 10 concentrations up to 100 μM; for EC50: read-out: effective concentration needed to reach half-maximum PPARδ activity
T4 construct: host or cells: Chinese hamster ovary (CHO)
T4 sequence (Q03181 1-441): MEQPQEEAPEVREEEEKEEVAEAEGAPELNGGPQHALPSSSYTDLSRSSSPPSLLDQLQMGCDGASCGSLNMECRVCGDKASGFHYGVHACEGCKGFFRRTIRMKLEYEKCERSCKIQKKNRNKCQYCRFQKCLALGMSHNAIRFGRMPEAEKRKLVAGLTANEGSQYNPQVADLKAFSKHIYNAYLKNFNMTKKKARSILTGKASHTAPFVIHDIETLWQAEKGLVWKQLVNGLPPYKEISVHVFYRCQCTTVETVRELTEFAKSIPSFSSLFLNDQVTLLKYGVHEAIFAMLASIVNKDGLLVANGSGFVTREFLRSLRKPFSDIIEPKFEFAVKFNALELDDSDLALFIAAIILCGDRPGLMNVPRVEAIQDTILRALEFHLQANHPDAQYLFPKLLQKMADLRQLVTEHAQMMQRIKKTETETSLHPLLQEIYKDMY
Procedure: as §2

[6] = target: T5, PPARγ (Homo sapiens, UniProt P37231); experiment: PathHunter NHRscan CHO cell-based functional protein interaction assay, PPARγ agonist; details: CHO cells, 10 concentrations up to 100 μM; positive control troglitazone; read-out: concentration with PPARγ agonist activity
T5 construct: host or cells: Chinese hamster ovary (CHO)
T5 sequence (P37231 1-505): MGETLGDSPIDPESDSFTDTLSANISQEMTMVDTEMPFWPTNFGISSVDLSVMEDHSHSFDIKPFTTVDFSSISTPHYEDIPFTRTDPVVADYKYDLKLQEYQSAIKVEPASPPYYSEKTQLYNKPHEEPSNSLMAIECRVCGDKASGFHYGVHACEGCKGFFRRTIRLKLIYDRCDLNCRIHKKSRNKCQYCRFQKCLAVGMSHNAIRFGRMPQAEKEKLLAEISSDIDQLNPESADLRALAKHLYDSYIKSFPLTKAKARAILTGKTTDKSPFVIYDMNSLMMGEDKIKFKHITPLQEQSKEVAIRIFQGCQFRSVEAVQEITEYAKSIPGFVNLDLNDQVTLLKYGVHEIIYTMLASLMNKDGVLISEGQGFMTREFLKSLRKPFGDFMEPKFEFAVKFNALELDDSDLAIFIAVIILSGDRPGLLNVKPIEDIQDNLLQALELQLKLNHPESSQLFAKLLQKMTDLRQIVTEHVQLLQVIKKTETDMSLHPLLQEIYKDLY
Procedure: as §2

[7] = Body weight of mice fed a high-fat diet with daily oral supplementation; assay type: in vivo, male C57BL/6J mice; details: for Body weight / Body weight change (%): high fat diet, n = 10; for percent body weight gain / weight-lowering effect compared to non-supplemented controls: high fat diet mice, C15:0 5 mg/kg, C17:0 5 and 35 mg/kg daily oral
Excerpt: This study assessed the effects of daily oral C15:0 and C17:0 supplementation on the body weight of mice fed a high-fat diet compared to non-supplemented controls.
Forty 6-week old male C57BL/6J mice (Jackson Laboratories, Bar Harbor, Me.) were fed a high fat diet (HFD, 60% kilocalories fat, D12492 Research Diets Inc., New Brunswick, N.J.) for eight weeks. Animals were randomly assigned to one of the following four study groups (10 per group) on Day −1 based on body weight: Group 1 (HFD non-supplemented controls), Group 2 (daily oral 5 mg/kg heptadecanoic acid, C17:0), Group 3 (daily oral 35 mg/kg heptadecanoic acid, C17:0), and Group 4 (daily oral 5 mg/kg pentadecanoic acid, C15:0). Group sizes for this pilot study were based on numerous published studies initially evaluating the effects of other natural small molecules on similar metabolic indices in the same model. Animals were provided the vehicle (1×PBS) or test articles daily via gastric gavage for 12 weeks. Animals were fed the HFD throughout the study. The study was conducted by Charles River Laboratories (Shrewsbury, Mass.), where animals were housed singly in solid bottom polycarbonate cages with Beta-chip contact bedding and enviro-dri nesting material, with temperature and humidity ranges of 18° to 26° C. and 30 to 70%, respectively. A 12 hr light cycle was used, and water and food were provided ad libitum. Body weights and body weight changes were recorded weekly throughout the study. Due to low sample sizes and inability to assume normal distributions, Wilcoxon tests were used to compare body weight values between supplemented and non-supplemented controls; a two-sided P value ≤0.05 was defined as significant.

[8] = after 4 months of daily oral 100 mg, 44 responders
[9] = 5 mg/kg daily oral gavage for 12 weeks
[10] = 5 mg/kg daily oral gavage for 12 weeks, *p < 0.05 compared to controls
[11] = 35 mg/kg daily oral gavage for 12 weeks

T1 sequence (P34972 whole entry): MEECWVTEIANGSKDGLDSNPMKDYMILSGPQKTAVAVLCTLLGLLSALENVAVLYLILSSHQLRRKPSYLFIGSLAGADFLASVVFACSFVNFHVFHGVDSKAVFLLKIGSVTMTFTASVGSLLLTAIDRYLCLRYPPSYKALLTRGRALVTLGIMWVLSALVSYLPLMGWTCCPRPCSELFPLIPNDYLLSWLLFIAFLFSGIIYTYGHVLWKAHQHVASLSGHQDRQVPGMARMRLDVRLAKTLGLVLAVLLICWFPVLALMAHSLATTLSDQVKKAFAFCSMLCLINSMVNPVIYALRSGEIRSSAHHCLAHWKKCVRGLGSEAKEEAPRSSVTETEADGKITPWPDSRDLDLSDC
T2 sequence (P21554 whole entry): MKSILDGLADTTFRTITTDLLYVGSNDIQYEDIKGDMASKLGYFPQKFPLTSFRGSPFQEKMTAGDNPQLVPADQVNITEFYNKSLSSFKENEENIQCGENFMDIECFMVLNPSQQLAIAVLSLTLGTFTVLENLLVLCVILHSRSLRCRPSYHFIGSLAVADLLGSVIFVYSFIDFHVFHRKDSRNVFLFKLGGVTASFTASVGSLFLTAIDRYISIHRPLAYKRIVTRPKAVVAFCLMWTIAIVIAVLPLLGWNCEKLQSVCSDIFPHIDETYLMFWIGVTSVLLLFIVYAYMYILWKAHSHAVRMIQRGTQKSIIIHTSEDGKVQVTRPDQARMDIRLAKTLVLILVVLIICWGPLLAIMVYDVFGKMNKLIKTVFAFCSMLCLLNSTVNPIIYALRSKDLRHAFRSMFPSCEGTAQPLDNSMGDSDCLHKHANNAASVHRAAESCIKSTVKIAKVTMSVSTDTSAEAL

Row | SMILES | CB2 agonist activity [1] [%] | CB1 agonist activity [2] [%] | maximum PPARα agonist activity compared to positive control GW7647 [3] [%] | EC50 [3] [µM] | customers reporting healthier body weight [4, 8] [%] | customers reporting healthier eating, including less snacking [4, 8] [%] | customers reporting feeling less hungry between meals, snacking less, and/or eating less during meals ([4]; after 6 weeks of daily oral 100 mg, 114 responders) [%] | satiety reported by patients taking the dietary supplement ([4]; dietary supplement) | maximum PPARδ agonist activity compared to positive control L-165,041 [5] [%] | EC50 [5] [µM] | EC50 [6] [µM] | Body weight [7, 9] [g] | Body weight change (%) [7, 10] | percent body weight gain / weight-lowering effect compared to non-supplemented controls [7] | Body weight [7, 11] [g] | Body weight change (%) [7, 11] [%]
1 | CCCCCCCCCCCCCCC(=O)O [C15:0, pentadecanoic acid] | 18.2 | 24.5 | 65.8 | 11.5 | 21 | 33 | 46 | increased satiety | 52.8 | 2.7 | ≥ 100 | 41 ± 5 | 120 ± 6* % | weight-lowering effect was observed; also recorded: lower percent body weight gain |  | 
2 | CCCCCCCCCCCCCCCCC(=O)O [C17:0, heptadecanoic acid] |  |  |  | > 100 |  |  |  |  | 39.8 | 17.4 | ≥ 100 | 43 ± 6 | 127 ± 9% | weight-lowering effect was not observed; also recorded: did not significantly decrease percent body weight | 41 ± 7 | 122 ± 12
